Values of other authors, collected in patent US5214030A, “Calcitonin gene-related peptides for treating erectile dysfunctions” (priority 1989, dated 1993).

Test system: Cynomolgus monkey
Settings: 1-2 intracavernosal injections per week over 12 months

COc1ccc(Cc2nccc3cc(OC)c(OC)cc23)cc1OC [papaverine]
findings in the erectile tissue: extensive fibrous formation in further parts of the erectile tissue
